From patent EP2775836B1, “METHODS FOR TREATING GOUT FLARES” (CymaBay Therapeutics, Inc., priority 2011, dated 2013)
Each block holds one compound with its values, some of them ahead of it.

Legend:
serum uric acid [1] = experiment: Phase 1 multiple-dose study MBX102-2DM01011b: serum uric acid after daily oral dosing for 10 days; assay type: in vivo, human; details: for Mean % change: Day 9 vs baseline; for Mean change at Day 9: change from baseline; for Mean uric acid at Day 9: healthy adult subjects
Protocol: Methods used in relation to FIG. 3 showing reduction in serum uric acid in subjects over time following once daily dosing with arhalofenate were as follows.
A single centre, Phase 1, placebo- and positive-controlled, double-blind, randomized, dose escalation study (MAD study, MBX102-2DM01011b) was conducted to evaluate the multiple-dose pharmacokinetics (PK) of (-)-halofenate administered as a daily dose orally for 10 days, at the protocol-specified doses in healthy adult subjects. A total of 119 subjects completed study treatment according to protocol: 6 subjects received MBX-102 100 mg/day for 10 days; 6 subjects received MBX-102 200 mg/day for 10 days; 9 subjects received MBX-102 400 mg/day for 10 days; 20 subjects received MBX-102 600 mg/day for 10 days; 10 subjects received MBX-102 600 mg Enteric Coated (EC) /day for 10 days; 9 subjects received MBX-102 800 mg EC/day for 10 days; 10 subjects received MBX-102 1000 mg EC/day for 10 days; 24 subjects received placebo treatment daily for 10 days; and 25 subjects received naproxen 500 mg b.i.d. monotherapy for 7 days. In this study, serum uric acid was measured at screening and on Days 1, 3, 5, 7, 9, 14, and 21.

[2] = system: high sensitivity C-Reactive Protein (hs-CRP); experiment: Phase 1 multiple-dose study M102-0507: change in hs-CRP in type 2 diabetic patients on Glynase; assay type: in vivo, human
Protocol: Data presented in FIGS. 6 and 7 were generated based on a single-center, Phase 1, randomized, single-blind, multiple-dose study (M102-0507) evaluating the effect of (-)-halofenate given to type 2 diabetic patients who were receiving a stable dose of Glynase® (micronized glyburide). Eligible patients were initially dosed for 3 days with Glynase® 3 mg/day, and if safety and tolerability were acceptable to the Investigator, the dose was increased to Glynase® 6 mg/day for 4 days, followed by 14 days of Glynase® 6 mg and either (-)-halofenate 400 mg or 600 mg administration until Day 21, the patients were discharged on Day 22.
In this study, change in high sensitivity C-Reactive Protein (hs-CRP) from baseline was one of the endpoints. […] At Day 22, the mean percentage changes in C-reactive protein compared to Day 1 were -21.1% and -32.9% in Group 1 ((-)-halofenate 400 mg) and Group 2 ((-)-halofenate 600 mg), respectively.

3T3-L1 adipocytes = experiment: Example 1: suppression of uric-acid induced inflammation in vitro; assay type: cell-based, murine; details: 50-150 µM, uric acid 5 or 15 mg/dL, 3 or 7 days
Protocol: Differentiated murine 3T3-L1 adipocytes are cultured in vitro in 24 well plates. To the culture medium (-)-halofenic acid is added at a final concentration of 50- 150 µM prior to the addition of uric acid at 5 mg/dL or 15 mg/dL and the culture continued for 3 or 7 days. A parallel culture of cells is conducted in the presence of a vehicle such as dimethylsulfoxide (DMSO). At the end of the culture period media is removed, cells are isolated and messenger RNA prepared. The levels of secreted cytokines representing a panel of pro-inflammatory cytokines including but not restricted to monocyte chemoatractant protein-1 (MCP-1), tumor necrosis factor α (TNF-α), interlekin-1β, (IL-1β), interleukin-6 (IL-6) and interleukin-12 (Il-12) are determined in the media isolated from the cells using commercially available cytokine assay kits. The levels of gene expression for the mRNAs for a panel of pro-inflammatory cytokines including but not restricted to monocyte chemoatractant protein-1 (MCP-1), tumor necrosis factor α (TNF-α), interlekin-1β, (IL-1β), interleukin-6 (IL-6) and interleukin-12 (Il-12) are determined using real-time PCR. […] A similar study is also conducted in primary mouse macrophages and human umbilical vein endothelial cells.

serum uric acid [3] = details: monotherapy at 40, 80, 120, 160 and 240 mg/day, gout patients; cited from earlier work
[4] = Plasma concentration of (-)-halofenic acid after daily oral 400 mg arhalofenate (LC-MS/MS); assay type: in vivo, human
Protocol: Methods used in relation to FIGS. 1-2 showing the pharmacokinetic profile of (-)-halofenic acid were as follows:
Plasma proteins in human plasma samples containing of (-)-halofenic acid, an internal standard (I.S.) and heparin as the anticoagulant were precipitated with acetonitrile. The samples were vortex mixed, centrifuged and an aliquot was analyzed by reversed phase high performance liquid chromatography using a Phenomenex Polar RP column maintained at 45 °C. The mobile phase was nebulized using heated nitrogen in a Z-spray source/interface and the ionized compounds were detected using a tandem quadrupole mass spectrometer.
The plasma concentrations were rounded to the nearest one-tenth µg/mL before the calculations. Plasma samples with concentrations below the quantifiable limit of 1.0 µg/mL (BQL) were assigned values of zero.

IL-1β = IL-1β mRNA and secretion in LPS stimulated primary mouse macrophages; assay type: cell-based; details: 75 and 150 µM, 1 hour before 100 ng/mL LPS for 8 hours
Protocol: Methods used in relation to FIGS. 4-5 showing effects of (-)-halofenic acid IL-1β were as follows:
Eight week-old male C57BL/6J mice were injected intra-peritoneally with 2.5 mL of 3% thioglycollate. Three days after injection, mice were sacrificed by cervical dislocation. Macrophages were harvested immediately by injecting 5 mL of PBS into the intra-peritoneal cavity, surgically exposing the intra-peritoneal cavity and aspirating the intra-peritoneal fluid with a 1 mL syringe. Macrophages from multiple animals were pooled and centrifuged at 1500 rpm, 10 min at 4 °C. Contaminating red blood cells were removed from the pellet by lysis with 10 mL RBC lysis buffer for 5min at room temperature, followed by centrifugation at 1500 rpm, 10 min at 4 °C. The cells were washed once and re-suspended in RPMI 1640, 10% FBS/0.1% Pen/Strep and plated into multi-well plates (1,000,000 cells/well for 24 well plates and 100,000 cells/well for 96 well plates). The cells were cultured for 30 hours, re-fed with fresh RPMI 1640, 0.5% FBS and incubated overnight. […]
The cells were harvested in Qiazol lysis solution for gene expression analysis. […] The Ct values for IL-1β were determined using ABI Sequence Detection Software. […] The fold change is then calculated using the formula 2^-[delta][delta]Ct. […]

[5] = 600 mg Enteric Coated (EC)/day for 10 days

SMILES: CC(=O)NCCOC(=O)[C@H](Oc1cccc(C(F)(F)F)c1)c1ccc(Cl)cc1 [(-)-halofenate, (-)-(R)-(4-chloro-phenyl)-(3-trifluoromethyl-phenoxy)-acetic acid 2-acetylamino-ethyl ester]
Mean % change (serum uric acid [1]; 400 mg/day orally for 10 days): -21%
Mean change at Day 9 (serum uric acid [1]; 400 mg/day orally for 10 days): -1.02 mg/dL
Mean uric acid at Day 9 (serum uric acid [1]; 400 mg/day orally for 10 days): 3.89 mg/dL
Mean % change (serum uric acid [1]; [5]): -30%
Mean change at Day 9 (serum uric acid [1]; [5]): -1.69 mg/dL
Mean uric acid at Day 9 (serum uric acid [1]; [5]): 3.92 mg/dL
Mean % change (serum uric acid [1]; 600 mg/day orally for 10 days): -33%
Mean change at Day 9 (serum uric acid [1]; 600 mg/day orally for 10 days): -1.65 mg/dL
Mean uric acid at Day 9 (serum uric acid [1]; 600 mg/day orally for 10 days): 3.40 mg/dL
Mean % change (serum uric acid [1]; 800 mg EC/day for 10 days): -32%
Mean change at Day 9 (serum uric acid [1]; 800 mg EC/day for 10 days): -1.77 mg/dL
Mean uric acid at Day 9 (serum uric acid [1]; 800 mg EC/day for 10 days): 3.83 mg/dL
Mean % change (serum uric acid [1]; 1000 mg EC/day for 10 days): -45%
Mean change at Day 9 (serum uric acid [1]; 1000 mg EC/day for 10 days): -2.44 mg/dL
Mean uric acid at Day 9 (serum uric acid [1]; 1000 mg EC/day for 10 days): 3.04 mg/dL
reduction in serum uric acid (serum uric acid [1]; all dose levels tested, dose dependent, over a period of time): gradual reduction
Day 22 hs-CRP ([2]; (-)-halofenate 600 mg/day Day 8-21 with Glynase 6 mg/day, type 2 diabetic patients): 4.4
mean percentage change in C-reactive protein at Day 22 compared to Day 1 ([2]; Group 1: 400 mg/day Day 8-21 with Glynase 6 mg/day): -21.1%
Mean % change from Day 8 (Day 22 hs-CRP) ([2]; Group 2: 600 mg/day Day 8-21 with Glynase 6 mg/day, Day 8 = Glyburide only phase): -33.3%
expression and secretion of panel of pro-inflammatory cytokines (3T3-L1 adipocytes): reduced level of expression and consequently secretion
uptake of uric acid into 3T3-L1 adipocytes (3T3-L1 adipocytes): prevents the uptake of uric acid

SMILES: O=c1[nH]cnc2c(CN3C[C@H](CO)[C@@H](O)C3)c[nH]c12 [BCX4208, 7-(((3R,4R)-3-hydroxy-4-(hydroxymethyl)pyrrolidin-1-yl)methyl)-3H-pyrrolo[3,2-d]pyrimidin-4(5H)-one]
serum uric acid (serum uric acid [3]): rapidly and significantly reduced

intraday plasma concentration ([4]; Day 15 and Day 30, daily oral 400 mg arhalofenate, FIG. 2): relatively constant
half-life ([4]; plasma, daily oral 400 mg arhalofenate for 30 days, FIGS. 1-2): long half-life
SMILES: O=C(O)C(Oc1cccc(C(F)(F)F)c1)c1ccc(Cl)cc1 (single isomer, unassigned; (-)) [(-)-halofenic acid, (-)-4-chlorophenyl-(3-trifluoromethylphenoxy) acetic acid]
messenger RNA encoding the pro-inflammatory cytokine IL-1β (IL-1β; FIG. 4): lower the messenger RNA
secretion of the pro-inflammatory cytokine IL-1β (IL-1β; FIG. 5): lowering the secretion
